The values below come from publication PMC12440775 (Frontiers in Pharmacology, 2025).

Structures are written as SMILES. Read-outs that look alike come from different tables or passages of the source.

Data set [1] can be described thus: Urinary excretion of unchanged FDV after single ascending dose (Part 1). The data set is classed as in vivo, human. To be noted: gMean (gCV%). As for the experimental part: Six volunteers received the active drug at each dose level dissolved in a polyethylene glycol (PEG)/tromethamine (TRIS)/meglumine solution, and two received a placebo. One dose level was tested within each group. Subject groups were dosed and evaluated sequentially, beginning with the lowest-dose group and proceeding stepwise to the highest-dose group. The next higher dose was administered only if no safety concerns arose during treatment of the preceding group.
A blank urine sample was collected prior to drug administration, and two 10-mL aliquots were retained to be checked for analytical interference. All urine voided during the sampling intervals 0–4, 4–12, 12–24, and 24–48 h after administration was collected in containers (Figure 1). Subjects were asked to completely void their bladder at the end of each collection interval. The urine volume for each collection interval was documented. Two aliquots of approximately 5 mL were taken and frozen at −20 °C or below and stored for bioanalytical measurement. Until shipped on dry ice to the analytical laboratory, the urine samples were stored at −20 °C or below at the clinical site and stored in the analytical laboratory at −20 °C or below until analysis.
(§1) Standard formulas for non-compartmental pharmacokinetic analysis provided by WinNonlin were used in determination of the maximum concentration (Cmax), time to maximum concentration (tmax), oral clearance (CL/F), mean residence time (MRTpo), and apparent volume distribution in terminal phase (Vz/F). The area under the plasma concentration–time curve (AUC) was calculated using a linear up/log down trapezoidal algorithm. The predicted concentration at the last time-point with quantifiable concentration was used for extrapolation of AUC. The fraction excreted as unchanged drug in urine (fe) was calculated as the percentage of the amount of drug excreted in urine as unchanged drug (Aet1–t2) compared to the administered dose ([Huang et al., 2008b]).

A short description of data set [2]: Food effect on relative bioavailability of 480 mg FDV, two-period crossover (Part 2). It counts as in vivo, human. The settings on record: for Tmax: median (range); for Tmax / AUC(0-t) / Vd/F / half-life: N = 7; for AUC(0-t) / Vd/F / half-life: mean (CV%); for Vd/F: read-out: Vz/F; for half-life: read-out: t½ (converted). As for the experimental part:
Blood samples were taken pre-dose (0) and at prespecified time points after dosing (Figure 1). At each time point, approximately 4.9 mL of blood was drawn into evacuated collection tubes, containing ethylene diamine tetraacetate (EDTA) anticoagulant and labeled with sample identification information. The EDTA-anticoagulated blood samples were immediately placed on ice and centrifuged at 4 °C and approximately 2000–4,000 g for approximately 10 min in a refrigerated centrifuge as soon as possible after collection. The harvested plasma was split into two aliquots, immediately placed in appropriately labeled tubes, and stored at −20 °C or below until shipment.
as §1, with “2008b]). […]” for “2008b]).”

On the set-up of data set [3]: method as in Duan et al., 2012. To be noted: rats; ref Duan et al., 2012; cited from earlier work.
Setting [4] is: 480 mg FDV in solution, fed vs fasted.
The mark [5] stands for this setting: male, human, plasma, oral, 480 mg, FDV 480 mg/fasted.
Where [6] appears, read: male, human, plasma, oral, 480 mg, FDV 480 mg/fed.

`C=C[C@@H]1C[C@]1(NC(=O)[C@@H]1C[C@@H](Oc2cc(-c3csc(NC(=O)C(C)C)n3)nc3c(Br)c(OC)ccc23)CN1C(=O)[C@@H](NC(=O)OC1CCCC1)C(C)(C)C)C(=O)O` [FDV, Faldaprevir]: the “Fe0–48h (fraction excreted in urine)” value in data set [1] (FDV 48 mg single oral dose) is 0.01 (165) %; in data set [1] (FDV 120 mg single oral dose), 0.02 (93) %; in data set [1] (FDV 240 mg single oral dose), 0.04 (68) %; in data set [1] (FDV 480 mg single oral dose), 0.04 (37) %; in data set [1] (FDV 800 mg single oral dose), 0.03 (110) %; in data set [1] (FDV 1,200 mg single oral dose), 0.03 (54) %. The “Increase of AUC0–∞ (systemic exposure) after high-fat breakfast” value in data set [2] (setting [4]) is 14%. Moreover, in data set [2] (setting [4]), the “Increase of Cmax after high-fat and high-calorie breakfast” value is given as 9%. Further, the “Effect of food on the rBA of FDV” value in data set [2] (480 mg FDV in solution, high-fat breakfast) is given as “no clinically relevant effect”. Moreover, the Tmax in data set [2] (FDV 480 mg/fasted) is 4 (4–6) h; in data set [2] (FDV 480 mg/fed), 6 (4–12) h; in data set [2] (male, human, plasma, oral, 480 mg, FDV 480 mg/fasted, read-out: tmax) it was 6 h; in data set [2] (male, human, plasma, oral, 480 mg, FDV 480 mg/fed, read-out: tmax) it was 4 h. For the same compound, the AUC(0-t) in data set [2] (setting [5]) amounted to 83400 ng·h/mL; in data set [2] (setting [6]), 92000 ng·h/mL. Moreover, the Vd/F in data set [2] (setting [5]) is 161 L; in data set [2] (setting [6]), 132 L. In addition, the results for the half-life in data set [2] (setting [5]) and in data set [2] (setting [6]) were 19.6 h and 18 h, respectively. For the same compound, in data set [3], the “Enrichment in the liver compared with plasma” value is 42 fold.
